Data set [1] in a line: Drug excretion in feces of healthy obese adult male human treated with [14C]CP-945,598 at 25 mg, po administered as single dose after 0 to 384 hrs hrs by HPLC method. The class given is ADME, organism-based. To be noted: in vivo.
A short description of data set [2]: Drug excretion in urine of healthy obese adult male human treated with [14C]CP-945,598 at 25 mg, po administered as single dose after 0 to 384 hrs hrs by HPLC method. It counts as ADME, organism-based. To be noted: in vivo.
In data set [3] the test system is Homo sapiens. In words: Total drug excretion in healthy obese adult male human treated with [14C]CP-945,598 at 25 mg, po administered as single dose after 0 to 384 hrs hrs by HPLC method. The class given is ADME, organism-based. To be noted: in vivo.
A further data set concerns the target Cytochrome P450 3A4 (Homo sapiens, UniProt P08684). In words: Drug metabolism assessed as human recombinant CYP3A4-mediated metabolite formation after 60 mins by HPLC method. The class given is ADME. The following applies: recombinant enzyme, 1 h.
The test system of data set [4] is Serum. In words: Drug level in serum of healthy obese adult male human treated with [14C]CP-945,598 at 25 mg, po administered as single dose after 12 hrs by HPLC method. It counts as ADME, organism-based. To be noted: in vivo.
The test system of data set [5] is Serum. In words: Drug level in serum of healthy obese adult male human treated with [14C]CP-945,598 at 25 mg, po administered as single dose after 24 hrs by HPLC method. The class given is ADME, organism-based. The following applies: in vivo.
Data set [6] deals with Serum. In words: AUC in serum of healthy obese adult male human treated with [14C]CP-945,598 at 25 mg, po administered as single dose after 48 hrs by HPLC method. The class given is ADME, organism-based. Details: time < 48 hr, dose 25 mg, route oral. The following applies: in vivo.
The subject of data set [7] is Serum. In words: Total drug level in serum of healthy obese adult male human treated with [14C]CP-945,598 at 25 mg, po administered as single dose after 48 hrs by HPLC method. The class given is ADME, organism-based. To be noted: in vivo.
Data set [8] relates to Serum. In words: Drug level in serum of healthy obese adult male human treated with [14C]CP-945,598 at 25 mg, po administered as single dose after 48 hrs by HPLC method. The class given is ADME, organism-based. To be noted: in vivo.
Data set [9] has as its system Serum. In words: Drug level in serum of healthy obese adult male human treated with [14C]CP-945,598 at 25 mg, po administered as single dose after 4 hrs by HPLC method. To be noted: in vivo. The class given is ADME, organism-based.
Data set [10] in a line: Bioavailability in rat. It counts as ADME, organism-based. The following applies: in vivo.
Data set [11] is described as follows: Terminal phase half life in human. The class given is ADME, organism-based. The following applies: in vivo, read-out: beta t1/2 (converted).
Data set [12] is described as follows: Bioavailability in dog. The class given is ADME, organism-based, Canis lupus familiaris. To be noted: in vivo.
For data set [13], the system named is Homo sapiens. As to the kind of experiment: AUC (0 to infinity) in healthy obese adult male human at 25 mg, po administered as single dose. It counts as ADME, organism-based, Plasma. Details: dose 25 mg, route oral, time infinity. The following applies: in vivo.
The nature of data set [14]: Tmax in healthy obese adult male human at 25 mg, po administered as single dose. The following applies: in vivo. The class given is ADME, organism-based.
Data set [15] in a line: Cmax in healthy obese adult male human at 25 mg, po administered as single dose. It counts as ADME, organism-based. Details: dose 25 mg, route oral. To be noted: in vivo.
The nature of data set [16]: Terminal elimination half life in healthy obese adult male human at 25 mg, po administered as single dose. The class given is ADME, organism-based. To be noted: in vivo, read-out: beta t1/2 (converted).
The test system of data set [17] is Homo sapiens. As to the kind of experiment: AUC (0 to last) in healthy obese adult male human at 25 mg, po administered as single dose. To be noted: in vivo. It counts as ADME, organism-based, Plasma. Set-up: dose 25 mg, time 0 - last, route oral.
Data set [18] is described as follows: Tmax in human. The following applies: in vivo. It counts as ADME, organism-based.

Chain of Cytochrome P450 3A4 (P08684 whole entry): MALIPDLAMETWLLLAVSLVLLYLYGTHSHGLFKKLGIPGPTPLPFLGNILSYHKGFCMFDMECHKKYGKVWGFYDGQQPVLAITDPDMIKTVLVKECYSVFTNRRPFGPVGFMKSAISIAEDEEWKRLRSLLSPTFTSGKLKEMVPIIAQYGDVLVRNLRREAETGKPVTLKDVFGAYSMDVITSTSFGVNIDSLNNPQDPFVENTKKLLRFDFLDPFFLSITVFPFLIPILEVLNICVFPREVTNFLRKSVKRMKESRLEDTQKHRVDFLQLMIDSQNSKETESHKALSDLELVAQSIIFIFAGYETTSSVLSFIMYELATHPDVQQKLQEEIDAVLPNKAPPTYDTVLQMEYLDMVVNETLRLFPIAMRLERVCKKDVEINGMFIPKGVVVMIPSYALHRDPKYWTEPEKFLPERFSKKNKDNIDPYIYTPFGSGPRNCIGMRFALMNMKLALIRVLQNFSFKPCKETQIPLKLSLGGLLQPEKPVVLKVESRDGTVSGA

With `NC1(C(=O)O)CCN(c2ncnc3c2nc(-c2ccccc2Cl)n3-c2ccc(Cl)cc2)CC1`, the Drug excretion in data set [1] turned out to be 30.9%; in [2], 5.4%; with Homo sapiens [3], 36.3%.

On to `NC(=O)C1(NO[C@@H]2O[C@H](CO)[C@@H](O)[C@H](O)[C@H]2O)CCN(c2ncnc3c2nc(-c2ccccc2Cl)n3-c2ccc(Cl)cc2)CC1`, for which the Drug excretion (in data set [2]; in the data set on Homo sapiens [3]) was 4.8% each time.

In the case of `NC(=O)C1(NO)CCN(c2ncnc3c2nc(-c2ccccc2Cl)n3-c2ccc(Cl)cc2)CC1`, at Cytochrome P450 3A4, the Drug metabolism was found to be 8.8%. Moreover, the Drug excretion came out at 1.2% in data set [1], 0.6% in [2] and 1.8% with Homo sapiens [3].

For `ON=C1CCN(c2ncnc3c2nc(-c2ccccc2Cl)n3-c2ccc(Cl)cc2)CC1`, the Drug uptake in the data set on Serum [4] was found to be 10.9 ngequiv/g; with Serum [5], 10.9 ngequiv/g; with Serum [7] it was 17.9 ngequiv/g; with Serum [8], 6 ngequiv/g; in the data set on Serum [9], 10.1 ngequiv/g. In addition, the Drug metabolism at Cytochrome P450 3A4 turned out to be 13%. In addition, the AUC in the data set with Serum [6] amounted to 438 ngequiv.hr/g.

Regarding `CCNC1(C(N)=O)CCN(c2ncnc3c2nc(-c2ccccc2Cl)n3-c2ccc(Cl)cc2)CC1.Cl` [OTENABANT HYDROCHLORIDE], the bioavailability in data set [10] and in [12] was 32% in each case. For the same compound, the results for the half-life in [11] and in [16] were 107 h and 159 h, respectively. This compound came in with an AUC in the data set with Homo sapiens [13] of 864 ng·h/mL. For the same compound, the Tmax in [14] came to 6 h; in data set [18], 4 h. The same compound yielded a Cmax in data set [15] of 14 ng/mL. Further, in the data set with Homo sapiens [17], the AUClast is 778 ng·h/mL.

(Values after ChEMBL document CHEMBL3526047, “Excretion, metabolism, and pharmacokinetics of 1-(8-(2-chlorophenyl)-9-(4-chlorophenyl)-9H-purin-6-yl)-4-(ethylamino)piperidine-4-carboxamide, a selective cannabinoid receptor antagonist, in healthy male volunteers” (Drug Metab Dispos, 2012).)
